Source: US20110306554A1, “PEPTIDE CAPABLE OF BINDING TO IMMUNOGLOBULIN” (priority 2009, published 2011)
Entries after “also recorded” stand apart in the source; their conditions may differ.

Legend:
[1] = test system: Monoclonal antibody cocktail-induced arthritis mice; test: Arthritis suppressing effects on arthritis-induced mice, Part 2; format: in vivo; details: 10 mg/kg intraperitoneal twice a day, 14 consecutive days from day 0
Procedure: Monoclonal antibody cocktail-induced arthritis mice were used to examine arthritis suppressing effects of peptides which are indicated as R1, R2, and R5 in Example 2. Arthritis was caused by intravenous administration of 2 mg/mouse of an arthritis-inducing monoclonal antibody cocktail and three days later, intraperitoneal administration of 50 μg/mouse of LPS. The peptides were administered at a dose of 10 mg/kg twice a day for a period of 14 consecutive days from the day of administration of the arthritis-inducing monoclonal antibody cocktail (day 0), and arthritis suppressing effect was examined in terms of clinical score. Experiments were carried out in a similar way to those in the section (1) in Example 3.
The required amount was calculated for each peptide, based on the animal weight. Each peptide solution was prepared to make a concentration of 1 mg/ml in a 0.5% methyl cellulose solution, and the prepared peptide solution was cold stored.
Measurement of body weight of animals was made on days 0, 3, 6, 9, 12, and 14 during the study period, with day 0 being the day of administration of the arthritis-inducing monoclonal antibody cocktail. Observation of general condition was made on a daily basis.
Mice were weighed on the day prior to start of administration and randomly assigned to groups using a grouping software, so that the average body weight values of the groups were approximately equal. To twenty 7-week-old mice, the arthritis-inducing monoclonal antibody cocktail was intravenously administered at a dose of 2 mg/mouse on day 0, and LPS was intraperitoneally administered at a dose of 50 μg/mouse on day 3.
Each peptide solution was given via intraperitoneal administration twice a day, morning and afternoon, from day 0. As a control, a 0.5% solution of methyl cellulose was intraperitoneally administered twice a day from day 0. A needle (26G; Terumo) and a syringe (1.0-ml capacity; Terumo) were used for administration. […]
Results of examinations were expressed by mean value±standard error and analyzed using EXSAS (Version 7.1.6, Arm Systex Co., Ltd.). […]

[2] = test system: type III allergic (Arthus) reaction-induced rats; test: Immune-complex disease suppression in type III allergic (Arthus) reaction-induced rats, Part 1; format: in vivo; details: intraperitoneal administration, 10 or 100 mg/kg
Procedure: Using sixty-four 7-week-old male Slc:Wistar rats, examinations were made on peptides R1, R2, and R5, in two series of examinations, each using a different method of administration (intraperitoneal administration and tail vein administration). Acclimation was carried out by giving normal solid chow CRF-1 for a period of 9 days or longer. The back of the animals was shaved on the day prior to administration, and a mixed solution of OVA and Evans blue dye was administered into the tail vein on the day of administration. Each peptide solution was administered intraperitoneally or into the tail vein 30 minutes or 50 minutes after the administration of the mixed solution of OVA and Evans blue dye, respectively. For intracutaneous administration of an anti-OVA solution, […] was intracutaneously administered in the back of animals at a dose of 0.1 ml/site 30 minutes or 10 minutes after the administration of the tested substance in the case of intraperitoneal or intravenous administration, respectively, so as to generate a local Arthus reaction. After the reaction was allowed to be generated for 4 hours, the animals were euthanized, the blood was removed thoroughly, and then the dorsal skin was exfoliated. The Arthus reaction sites on the exfoliated skin were punched out, and the Evans blue dye was extracted from the punched skin overnight. The amount of dye leakage was quantified by measuring absorbance for the Evans blue dye with a spectrophotometer and using a calibration curve (see, H. Okamoto, Y. Iwahisa, and M. Terasawa, “Suppression of the Arthus reaction by Y-24180, a potent and specific antagonist of platelet-activating factor”, Agents Actions, 35:149-158 (1992), for experimental procedures used in Example 4).
A predetermined amount of each peptide (peptides R1, R2, and R5) was dissolved in physiological saline to make a 20 mg/ml solution. A 2 mg/ml solution was prepared by diluting the 20 mg/ml solution 10-fold with physiological saline. A 5 mg/ml solution was prepared by dissolving each peptide in a predetermined amount in physiological saline to make a prepared solution.
A mixed solution of OVA and Evans blue dye was administered into the tail vein at a dose of 2 ml/kg. Each peptide solution was administered intraperitoneally or into the tail vein 30 minutes or 50 minutes after the administration of the mixed solution of OVA and Evans blue dye, respectively. For intracutaneous administration of an anti-OVA solution, […] was intracutaneously administered in the back of animals at a dose of 0.1 mL/site 30 minutes or 10 minutes after the administration of the tested substance in the case of intraperitoneal or intravenous administration, respectively, so as to generate a local Arthus reaction. Intracutaneous administration was conducted at 2 sites for PBS and at 2 sites for the anti-OVA solution per animal. After the reaction was allowed to be generated for 4 hours, the animals were euthanized by decapitation under ether anesthesia, the blood was removed thoroughly, and then the dorsal skin was exfoliated. The Arthus reaction sites on the exfoliated skin were punched out and subjected to dye extraction.
Several cuttings were made in the skin strips that were punched out with a punch. […] The amount of dye leakage was calculated from a calibration curve of known amounts of the dye.
The mean value (mean)±standard deviation (SD) for each group was calculated with body-weight measurements and amounts of dye leakage. […]

STGKFTCKVPGLYYF (Immunoglobulin binding peptide) [R5]
arthritis suppressing effect (clinical score) [1]: Arthritis suppressing effects were observed; also recorded: arthritis was suppressed | effect of immune-complex disease suppression (dye leakage) [2]: clear and satisfactory effects of immune-complex disease suppression; also recorded: suppressed
